This is an account of results in ChEMBL document CHEMBL3994565 (Medchemcomm, 2016).

Data set [1] in a line: Cytotoxicity against MDCK cells assessed as cell viability at 100 uM after 40 hrs by CellTiter-Glo assay relative to control. Conditions: dog, read-out: Activity. It is filed as cell-based, Canis lupus familiaris. On the technique in general: Cellular ATP, detected with luciferase, serves as a proxy for viable cell number.
Data set [2] in a line: Antiviral activity against Influenza A virus (A/WSN/33(H1N1)) infected in MDCK cells assessed as inhibition of virus-induced cytopathic effect at 100 uM incubated for 40 hrs by CellTiter-Glo assay. It is filed as functional, Influenza A virus (A/WSN/1933(H1N1)). Background: Protection from cytopathic effect is a common read-out in antiviral testing.
Data set [3] can be described thus: Selectivity index, ratio of CC50 against uninfected MDCK cells to IC50 against Influenza A virus (A/WSN/33(H1N1)) infected MDCK cells. Conditions: dog; read-out: Ratio CC50/IC50. The class given is toxicity, cell-based.
Data set [4] in a line: Cytotoxicity against MDCK cells assessed as decrease in cell viability after 40 hrs by CellTiter-Glo assay. The class given is cell-based, Canis lupus familiaris. Conditions: dog.
The nature of data set [5]: Antiviral activity against Influenza A virus (A/WSN/33(H1N1)) infected in MDCK cells assessed as inhibition of virus-induced cytopathic effect incubated for 40 hrs by CellTiter-Glo assay. The class given is functional, cell-based, Influenza A virus (A/WSN/1933(H1N1)).

A value given as a limit tells only on which side of the number the result lay.

Broadly, the inhibition is the drop in the measured response relative to a control, in per cent. For `C=C(C)[C@@H]1CC[C@]2(C(=O)NCc3cn(CCO[C@]4(C(=O)OC)C[C@H](O)[C@@H](NC(C)=O)[C@H]([C@H](O)[C@H](O)CO)O4)nn3)CC[C@]3(C)[C@H](CC[C@@H]4[C@@]5(C)CC[C@H](O)C(C)(C)[C@@H]5CC[C@]43C)[C@@H]12`, the viability at 40 h, 100 µM in data set [1] was determined as 104%. Besides, the inhibition at 100 µM in data set [2] amounted to 12.2%.
For the molecule `COC(=O)[C@@]1(OCCn2cc(CNC(=O)[C@]34CC[C@@H](C)[C@H](C)[C@@H]3C3=CC[C@@H]5[C@@]6(C)CC[C@H](O)C(C)(C)[C@@H]6CC[C@@]5(C)[C@]3(C)CC4)nn2)C[C@H](O)[C@@H](NC(C)=O)[C@H]([C@H](O)[C@H](O)CO)O1`, the viability at 40 h, 100 µM in data set [1] was found to be 20.1%.
Consider `COC(=O)[C@@]1(n2cc(CNC(=O)[C@]34CCC(C)(C)C[C@@H]3C3=CC[C@@H]5[C@@]6(C)CC[C@H](O)C(C)(C)[C@@H]6CC[C@@]5(C)[C@]3(C)CC4)nn2)C[C@H](OC(C)=O)[C@@H](NC(C)=O)[C@H]([C@H](OC(C)=O)[C@@H](COC(C)=O)OC(C)=O)O1`, for which the viability at 40 h, 100 µM in data set [1] was found to be 104%. Besides, the inhibition at 100 µM in data set [2] was determined as 1.3%.
In the case of `COC(=O)[C@@]1(n2cc(CNC(=O)[C@]34CCC(C)(C)C[C@@H]3C3=CC[C@@H]5[C@@]6(C)CC[C@H](O)C(C)(C)[C@@H]6CC[C@@]5(C)[C@]3(C)C[C@H]4O)nn2)C[C@H](O)[C@@H](NC(C)=O)[C@H]([C@H](O)[C@H](O)CO)O1`, in data set [1], the viability at 40 h, 100 µM came out at 104%. Also, the inhibition at 100 µM in data set [2] is -3.6%.
For `COC(=O)[C@@]1(n2cc(CNC(=O)[C@]34CCC(C)(C)C[C@@H]3C3=CC[C@@H]5[C@@]6(C)CC[C@H](O)C(C)(C)[C@@H]6CC[C@@]5(C)[C@]3(C)C[C@H]4O)nn2)C[C@H](OC(C)=O)[C@@H](NC(C)=O)[C@H]([C@H](OC(C)=O)[C@@H](COC(C)=O)OC(C)=O)O1` the same measures were 103% and -5.2%.
Regarding `C[C@H]1[C@H](C)CC[C@]2(C(=O)O)CC[C@]3(C)C(=CC[C@@H]4[C@@]5(C)CC[C@H](O)C(C)(C)[C@@H]5CC[C@]43C)[C@H]12` [URSOLIC ACID], in data set [1], the viability at 40 h, 100 µM is 0.4%.
As usually defined, the CC50 is the concentration giving 50% cytotoxicity. In general, IC50 refers to the concentration at which inhibition is half-maximal. Turning to `C=C(C)[C@@H]1CC[C@]2(C(=O)NCc3cn(CCO[C@]4(C(=O)OC)C[C@H](OC(C)=O)[C@@H](NC(C)=O)[C@H]([C@H](OC(C)=O)[C@@H](COC(C)=O)OC(C)=O)O4)nn3)CC[C@]3(C)[C@H](CC[C@@H]4[C@@]5(C)CC[C@H](O)C(C)(C)[C@@H]5CC[C@]43C)[C@@H]12`, in data set [1], the viability at 40 h, 100 µM turned out to be 105%. The inhibition at 100 µM in data set [2] is 67.6%. For the same molecule, the selectivity ratio in data set [3] is above 6.3. Also, in data set [4], the CC50 at 40 h was above 500 µM. Further, the IC50 in data set [5] was determined as 78.3 µM.
In the case of `COC(=O)[C@@]1(OCCOC(=O)[C@]23CC[C@@H](C)[C@H](C)[C@@H]2C2=CC[C@@H]4[C@@]5(C)CC[C@H](O)C(C)(C)[C@@H]5CC[C@@]4(C)[C@]2(C)CC3)C[C@H](OC(C)=O)[C@@H](NC(C)=O)[C@H]([C@H](OC(C)=O)[C@@H](COC(C)=O)OC(C)=O)O1`, in data set [1], the viability at 40 h, 100 µM was found to be 0.2%.
`COC(=O)[C@@]1(OCCn2cc(CNC(=O)[C@]34CCC(C)(C)C[C@@H]3C3=CC[C@@H]5[C@@]6(C)CC[C@H](O)C(C)(C)[C@@H]6CC[C@@]5(C)[C@]3(C)C[C@H]4O)nn2)C[C@H](O)[C@@H](NC(C)=O)[C@H]([C@H](O)[C@H](O)CO)O1`: the viability at 40 h, 100 µM in data set [1] turned out to be 107%. Also, the inhibition at 100 µM in data set [2] worked out at 2.2%.
Regarding `COC(=O)[C@@]1(OCCOC(=O)[C@]23CCC(C)(C)C[C@@H]2C2=CC[C@@H]4[C@@]5(C)CC[C@H](O)C(C)(C)[C@@H]5CC[C@@]4(C)[C@]2(C)CC3)C[C@H](O)[C@@H](NC(C)=O)[C@H]([C@H](O)[C@H](O)CO)O1`, the viability at 40 h, 100 µM in data set [1] was found to be 82.4%. The inhibition at 100 µM in data set [2] was 16.4%.
As for `COC(=O)[C@@]1(OCCN=[N+]=[N-])C[C@H](OC(C)=O)[C@@H](NC(C)=O)[C@H]([C@H](OC(C)=O)[C@@H](COC(C)=O)OC(C)=O)O1`, the viability at 40 h, 100 µM in data set [1] amounted to 100%. The inhibition at 100 µM in data set [2] worked out at 4.3%.
For `COC(=O)[C@@]1(OCCOC(=O)[C@]23CCC(C)(C)C[C@@H]2C2=CC[C@@H]4[C@@]5(C)CC[C@H](O)C(C)(C)[C@@H]5CC[C@@]4(C)[C@]2(C)C[C@H]3O)C[C@H](O)[C@@H](NC(C)=O)[C@H]([C@H](O)[C@H](O)CO)O1` the same measures were 99.8% and -11.8%.
With `COC(=O)[C@@]1(OCCn2cc(CNC(=O)[C@]34CCC(C)(C)C[C@@H]3C3=CC[C@@H]5[C@@]6(C)CC[C@H](O)C(C)(C)[C@@H]6CC[C@@]5(C)[C@]3(C)C[C@H]4O)nn2)C[C@H](OC(C)=O)[C@@H](NC(C)=O)[C@H]([C@H](OC(C)=O)[C@@H](COC(C)=O)OC(C)=O)O1`, the viability at 40 h, 100 µM in data set [1] came out at 105%. Besides, the inhibition at 100 µM in data set [2] stood at 15.3%.
For `COC(=O)[C@@]1(n2cc(CNC(=O)[C@]34CC[C@@H](C)[C@H](C)[C@@H]3C3=CC[C@@H]5[C@@]6(C)CC[C@H](O)C(C)(C)[C@@H]6CC[C@@]5(C)[C@]3(C)CC4)nn2)C[C@H](O)[C@@H](NC(C)=O)[C@H]([C@H](O)[C@H](O)CO)O1`, in data set [1], the viability at 40 h, 100 µM was 12.2%.
Turning to `C=C(C)[C@@H]1CC[C@]2(C(=O)NCc3cn([C@]4(C(=O)OC)C[C@H](O)[C@@H](NC(C)=O)[C@H]([C@H](O)[C@H](O)CO)O4)nn3)CC[C@]3(C)[C@H](CC[C@@H]4[C@@]5(C)CC[C@H](O)C(C)(C)[C@@H]5CC[C@]43C)[C@@H]12`, the viability at 40 h, 100 µM in data set [1] is 104%. Besides, in data set [2], the inhibition at 100 µM was -8.1%.
As for `COC(=O)[C@@]1(n2cc(CNC(=O)[C@]34CCC(C)(C)C[C@@H]3C3=CC[C@@H]5[C@@]6(C)CC[C@H](O)C(C)(C)[C@@H]6CC[C@@]5(C)[C@]3(C)CC4)nn2)C[C@H](O)[C@@H](NC(C)=O)[C@H]([C@H](O)[C@H](O)CO)O1`, in data set [1], the viability at 40 h, 100 µM was found to be 106%. Besides, the inhibition at 100 µM in data set [2] was -4.6%.
For the molecule `CC1(C)CC[C@]2(C(=O)O)[C@H](O)C[C@]3(C)C(=CC[C@@H]4[C@@]5(C)CC[C@H](O)C(C)(C)[C@@H]5CC[C@]43C)[C@@H]2C1`, in data set [1], the viability at 40 h, 100 µM came out at 40.1%.
Turning to `COC(=O)[C@@]1(OCCOC(=O)[C@]23CCC(C)(C)C[C@@H]2C2=CC[C@@H]4[C@@]5(C)CC[C@H](O)C(C)(C)[C@@H]5CC[C@@]4(C)[C@]2(C)CC3)C[C@H](OC(C)=O)[C@@H](NC(C)=O)[C@H]([C@H](OC(C)=O)[C@@H](COC(C)=O)OC(C)=O)O1`, the viability at 40 h, 100 µM in data set [1] worked out at 90.1%. Also, the inhibition at 100 µM in data set [2] stood at 18.7%.
`CC1(C)CC[C@]2(C(=O)O)CC[C@]3(C)C(=CC[C@@H]4[C@@]5(C)CC[C@H](O)C(C)(C)[C@@H]5CC[C@]43C)[C@@H]2C1` [OLEANOLIC_ACID]: in data set [1], the viability at 40 h, 100 µM came out at 60.9%.
The same measure, in the same setting: the result for `COC(=O)[C@@]1(OCCOC(=O)[C@]23CC[C@@H](C)[C@H](C)[C@@H]2C2=CC[C@@H]4[C@@]5(C)CC[C@H](O)C(C)(C)[C@@H]5CC[C@@]4(C)[C@]2(C)CC3)C[C@H](O)[C@@H](NC(C)=O)[C@H]([C@H](O)[C@H](O)CO)O1` reads 0.1%.
As to `COC(=O)[C@@]1(OCCn2cc(CNC(=O)[C@]34CCC(C)(C)C[C@@H]3C3=CC[C@@H]5[C@@]6(C)CC[C@H](O)C(C)(C)[C@@H]6CC[C@@]5(C)[C@]3(C)CC4)nn2)C[C@H](O)[C@@H](NC(C)=O)[C@H]([C@H](O)[C@H](O)CO)O1`, the viability at 40 h, 100 µM in data set [1] is 107%. Moreover, the inhibition at 100 µM in data set [2] stood at 6.7%.
Regarding `COC(=O)[C@@]1(OCCOC(=O)[C@]23CCC(C)(C)C[C@@H]2C2=CC[C@@H]4[C@@]5(C)CC[C@H](O)C(C)(C)[C@@H]5CC[C@@]4(C)[C@]2(C)C[C@H]3O)C[C@H](OC(C)=O)[C@@H](NC(C)=O)[C@H]([C@H](OC(C)=O)[C@@H](COC(C)=O)OC(C)=O)O1`, the viability at 40 h, 100 µM in data set [1] turned out to be 84.5%. For the same molecule, the inhibition at 100 µM in data set [2] came to 31.2%.
In the case of `C=C(C)[C@@H]1CC[C@]2(C(=O)NCc3cn([C@]4(C(=O)OC)C[C@H](OC(C)=O)[C@@H](NC(C)=O)[C@H]([C@H](OC(C)=O)[C@@H](COC(C)=O)OC(C)=O)O4)nn3)CC[C@]3(C)[C@H](CC[C@@H]4[C@@]5(C)CC[C@H](O)C(C)(C)[C@@H]5CC[C@]43C)[C@@H]12`, the viability at 40 h, 100 µM in data set [1] came out at 100%. The inhibition at 100 µM in data set [2] worked out at 16%.
Regarding `COC(=O)[C@@]1(OCCI)C[C@H](OC(C)=O)[C@@H](NC(C)=O)[C@H]([C@H](OC(C)=O)[C@@H](COC(C)=O)OC(C)=O)O1`, the viability at 40 h, 100 µM in data set [1] amounted to 103%. Moreover, the inhibition at 100 µM in data set [2] worked out at 6.3%.
As to `COC(=O)[C@@]1(OCCn2cc(CNC(=O)[C@]34CC[C@@H](C)[C@H](C)[C@@H]3C3=CC[C@@H]5[C@@]6(C)CC[C@H](O)C(C)(C)[C@@H]6CC[C@@]5(C)[C@]3(C)CC4)nn2)C[C@H](OC(C)=O)[C@@H](NC(C)=O)[C@H]([C@H](OC(C)=O)[C@@H](COC(C)=O)OC(C)=O)O1`, the viability at 40 h, 100 µM in data set [1] came to 3.3%.
`COC(=O)[C@@]1(n2cc(CNC(=O)[C@]34CC[C@@H](C)[C@H](C)[C@@H]3C3=CC[C@@H]5[C@@]6(C)CC[C@H](O)C(C)(C)[C@@H]6CC[C@@]5(C)[C@]3(C)CC4)nn2)C[C@H](OC(C)=O)[C@@H](NC(C)=O)[C@H]([C@H](OC(C)=O)[C@@H](COC(C)=O)OC(C)=O)O1`: in data set [1], the viability at 40 h, 100 µM stood at 2.5%.
In the case of `COC(=O)[C@@]1(N=[N+]=[N-])C[C@H](OC(C)=O)[C@@H](NC(C)=O)[C@H]([C@H](OC(C)=O)[C@@H](COC(C)=O)OC(C)=O)O1`, in data set [1], the viability at 40 h, 100 µM turned out to be 100%. The inhibition at 100 µM in data set [2] was 1%.
